Assay results as given in patent US20050288323A1, “Octahydro-indolizine and quinolizine and hexahydro-pyrrolizine” (priority 2000, published 2005).

Tested on: not given
Assay: not given
Conditions: not given

melting point [°C]	Compound
195 to 198	Brc1cccc([C@H]2CC[C@H]3CCCCN32)c1 (racemic)

Target: T1, human histamine H3 receptor (Homo sapiens, UniProt Q9Y5N1)
T1 construct: One microgram of supercoiled H3 receptor cDNA was added to the cells and mixed; expressed in transfected cells; membranes
T1 sequence (Q9Y5N1 whole entry): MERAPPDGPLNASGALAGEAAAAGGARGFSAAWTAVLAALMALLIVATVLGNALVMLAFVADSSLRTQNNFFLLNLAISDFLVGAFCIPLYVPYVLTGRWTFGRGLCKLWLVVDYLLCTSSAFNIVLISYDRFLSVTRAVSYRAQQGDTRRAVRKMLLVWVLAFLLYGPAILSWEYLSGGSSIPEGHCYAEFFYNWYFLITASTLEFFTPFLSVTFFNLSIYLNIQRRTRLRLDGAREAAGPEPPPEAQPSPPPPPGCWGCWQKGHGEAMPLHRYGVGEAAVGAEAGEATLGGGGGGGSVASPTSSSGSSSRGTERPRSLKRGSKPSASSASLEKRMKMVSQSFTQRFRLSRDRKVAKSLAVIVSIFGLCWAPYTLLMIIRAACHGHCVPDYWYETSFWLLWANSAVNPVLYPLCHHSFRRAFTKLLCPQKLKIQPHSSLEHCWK
Assay: [3H]-N-methylhistamine binding
Conditions: [3H]-N-methylhistamine 0.8 nM, membranes of H3 receptor-expressing SK-N-MC cells
Protocol: Thus in the present invention receptor binding was determined using the human histamine H3 receptor (See Lovenberg et al Mol. Pharmacol. 1999, 1107). Screening using the human receptor is particularly important for the identification of new therapies for the treatment of human disease. Conventional binding assays for example are determined using rat synaptosomes (Garbarg et al J. Pharmacol. Exp. Ther. 1992, 263, 304), rat cortical membranes (West et al Mol. Pharmacol. 1990, 610), and guinea pig brain (Korte et al Biochem. Biophys. Res. Commun. 1990, 978). Only limited studies have been performed previously using human tissue but these allude to significant differences in the pharmacology of rodent and primate receptors (West et al Eur. J. Pharmacol. 1999, 233).
Transfection of Cells with Human Histamine Receptor
A 10 cm tissue culture dish with a confluent monolayer of SK-N-MC cells was split two days prior to transfection. Using sterile technique the media was removed and the cells were detached from the dish by the addition of trypsin. One fifth of the cells were then placed onto a new 10 cm dish. Cells were grown in a 37° C. incubator with 5% CO2 in Minimal Essential Media Eagle with 10% Fetal Bovine Serum. After two days cells were approximately 80% confluent. These were removed from the dish with trypsin and pelleted in a clinical centrifuge. The pellet was then re-suspended in 400 μL complete media and transferred to an electroporation cuvette with a 0.4 cm gap between the electrodes (Bio-Rad #165-2088). One microgram of supercoiled H3 receptor cDNA was added to the cells and mixed. The voltage for the electroporation was set at 0.25 kV, the capacitance was set at 960 μF. After electroporation the cells were diluted into 10 mL complete media and plated onto four 10 cm dishes. Because of the variability in the efficiency of electroporation, four different concentrations of cells were plated. The ratios used were; 1:20, 1:10, 1:5, with the remainder of the cells being added to the fourth dish. The cells were allowed to recover for 24 hours before adding the selection media (complete media with 600 μg/mL G418). After 10 days dishes were analyzed for surviving colonies of cells. Dishes with well isolated colonies were used. Cells from individual colonies were isolated and tested. SK-N-MC cells were used because they give efficient coupling for inhibition of adenylate cyclase. The clones that gave the most robust inhibition of adenylate cyclase in response to histamine were used for further study.
[^3H]-N-methylhistamine Binding
Cell pellets from histamine H3 receptor-expressing SK-N-MC cells were homogenized in 20 mM TrisHCl/0.5 mM EDTA. Supernatants from a 800 g spin were collected, recentrifuged at 30,000 g for 30 minutes. Pellets were re-homogenized in 50 mM Tris/5 mM EDTA (pH 7.4). Membranes were incubated with 0.8 nM [^3H]-N-methylhistamine plus/minus test compounds for 45 min at 25° C. and harvested by rapid filtration over GF/C glass fiber filters (pretreated with 0.3% polyethylenimine) followed by four washes with ice cold buffer. Filters were dried, added to 4 mL scintillation cocktail and then counted on a liquid scintillation counter. Non-specific binding was defined with 10 μM histamine. The pKi values were calculated based on a Kd of 800 pM and a ligand concentration ([L]) of 800 pM according to the formula: Ki=(IC50)/(1+([L]/(Kd))

Compound	Ki [nM]
C(#CCN1CCCCC1)COc1ccc([C@H]2CC[C@H]3CCCCN32)cc1 (relative stereo) [Example 84, trans-3-[4-(3-Piperidinylmethylpropargyloxy)phenyl]octahydroindolizine]	1.8
Nc1ccc([C@@H]2CC[C@@H]3CCCCN32)cc1 (relative stereo) [Example 95, trans-3-(4-Aminophenyl)octahydroindolizine]	32
CN(C)c1ccc([C@@H]2CC[C@@H]3CCCCN32)cc1 (relative stereo) [Example 96, trans-3-(4-(N,N-Dimethylamino)phenyl)octahydroindolizine]	380
CS(=O)(=O)Nc1ccc([C@@H]2CC[C@@H]3CCCCN32)cc1 (relative stereo) [Example 97, trans-3-(4-(Methylsulfonylamino)phenyl)octahydroindolizine]	481
CS(=O)(=O)N(c1ccc([C@@H]2CC[C@@H]3CCCCN32)cc1)S(C)(=O)=O (relative stereo) [Example 98, trans-3-(4-(bis-Methylsulfonylamino)phenyl)octahydroindolizine]	787
c1cc([C@@H]2CC[C@@H]3CCCCN32)ccc1NC1CCNCC1 (relative stereo) [Example 101, trans-3-[4-(4-Piperidinylamino)phenyl]octahydroindolizine]	314
O=C(CCN1CCCCC1)Nc1ccc([C@@H]2CC[C@@H]3CCCCN32)cc1 (relative stereo) [Example 105, trans-3-[4-(N-3-Piperidinylpropanamido)phenyl]octahydroindolizine]	10
c1cc([C@@H]2CC[C@@H]3CCCCN32)ccc1NCCCN1CCCCC1 (relative stereo) [Example 106, trans-3-[4-(N-3-Piperidylpropylamino)phenyl]octahydroindolizine]	1.5
C=CC(=O)Nc1ccc([C@@H]2CC[C@@H]3CCCCN32)cc1 (relative stereo) [Example 107, N-[4-(trans-Octahydro-3-indolizinyl)phenyl]propenamide]	327
C=CC(=O)N(C)c1ccc([C@@H]2CC[C@@H]3CCCCN32)cc1 (relative stereo) [Example 108, N-Methyl-N-[4-(trans-Octahydro-3-indolizinyl)phenyl]propenamide]	2770
CN(CCCN1CCCCC1)c1ccc([C@@H]2CC[C@@H]3CCCCN32)cc1 (relative stereo) [Example 110, trans-3-[4-(N-Methyl-N-3-piperidylpropylamino)phenyl]octahydroindolizine]	2
O=C(CCCN1CCCCC1)Nc1ccc([C@@H]2CC[C@@H]3CCCCN32)cc1 (relative stereo) [Example 111, trans-3-[4-(N-4-Piperidylbutanamido)phenyl]octahydroindolizine]	3
O=C(CCCCN1CCCCC1)Nc1ccc([C@@H]2CC[C@@H]3CCCCN32)cc1 (relative stereo) [Example 112, trans-3-[4-(N-5-Piperidylpentanamido)phenyl]octahydroindolizine]	2.1
CN(CCCCCN1CCCCC1)c1ccc([C@@H]2CC[C@@H]3CCCCN32)cc1 (relative stereo) [Example 114, trans-3-[4-(N-Methyl-N-5-piperidylpentylamino)phenyl]octahydroindolizine]	9
c1cc([C@@H]2CC[C@@H]3CCCCN32)ccc1NCCCCCN1CCCCC1 (relative stereo) [Example 115, trans-3-[4-(N-5-Piperidylpentylamino)phenyl]octahydroindolizine]	0.7
O=S(=O)(Nc1ccc([C@@H]2CC[C@@H]3CCCCN32)cc1)C1CCCNC1 (relative stereo) [Example 117, trans-3-[4-(3-Piperidylsulfonylamino)phenyl]octahydroindolizine]	4
CN(c1ccc([C@@H]2CC[C@@H]3CCCCN32)cc1)S(=O)(=O)C1CCCNC1 (relative stereo) [Example 118, trans-3-[4-(3-Piperidylsulfonyl-N-methylamino)phenyl]octahydroindolizine]	61

Compound	Ki [nM]
CN(c1ccc([C@@H]2CC[C@@H]3CCCCN32)cc1)S(=O)(=O)CCN1CCCCC1 (relative stereo) [Example 121, trans-3-{4-[(2-Piperidylethyl)sulfonyl-N-methylamino]phenyl}octahydroindolizine]	19
OC(c1ccncc1)c1ccc([C@H]2CC[C@H]3CCCCN32)cc1 (stereo partly drawn) [Example 24, trans-3-[4-(4-Pyridylmethan-1-ol)phenyl]octahydroindolizine]	82
c1cc(Sc2ccc(C3CCCC4CCCCN43)cc2)ccn1 (stereo not shown) [Example 25, 4-[4-(4-Pyridylthio)phenyl]octahydoquinolizine]	305
CS(=O)(=O)Nc1cccc(-c2ccc([C@H]3CC[C@H]4CCCCN43)cc2)c1 [Example 55, tran-3-[4-(3-Methylsulfonylaminophenyl)phenyl]octahydroindolizine]	320
c1cc([C@@H]2CCC[C@@H]3CCCN32)ccc1OCCCCCN1CCCCC1 [Example 65]	1
c1cc(C2CC3CCCCN3C2)ccc1OCCCN1CCCCC1 (stereo not drawn) [Example 69, syn-2-[4-(3-Piperidinylpropanoxy)phenyl]octahydroindolizine]	0.2
c1cc([C@H]2CC[C@H]3CCCCN32)ccc1OCCC1CCCCN1 (stereo partly drawn) [Example 86, trans-3-[4-(2,2′-piperidinylethoxy)phenyl]octahydroindolizine]	90
c1cc([C@H]2CC[C@H]3CCCCN32)ccc1OCCCN1CCCCC1 [Example 93, (R, R)-3-(4-(3-Piperidinylpropoxy)phenyl)octahydroindolizine]	0.06
c1cc([C@@H]2CC[C@@H]3CCCCN32)ccc1OCCCN1CCCCC1 [Example 94, (S, S)-3-(4-(3-Piperidinylpropoxy)phenyl)octahydroindolizine]	0.06
c1cc(Sc2ccc(C3CCC4CCCCN43)cc2)ccn1 (stereo not shown) [Example 136, Octahydro-3-[4-(4-pyridinylthio)phenyl]indolizine]	7.5
c1cc(Sc2ccc([C@H]3CC[C@H]4CCCCN43)cc2)ccn1 [Example 137, (R, R)-Octahydro-3-[4-(4-pyridinylthio)phenyl]indolizine]	3.8
c1cc(Sc2ccc([C@@H]3CC[C@@H]4CCCCN43)cc2)ccn1 [Example 138, (S, S)-Octahydro-3-[4-(4-pyridinylthio)phenyl]indolizine]	100
c1cc(C2CCC3CCCN32)ccc1OCCCN1CCCCC1 (stereo not shown) [Example 140, 3-[4-(Piperidinylpropoxy)phenyl]hexahydro-1H-pyrrolizine]	0.6
N-Methyl-N-[4-(trans-Octahydro-3-indolizinyl)phenyl]-3-piperidinylpropenamide [Example 109]	1
trans-3-[4-(Vinylsulfonylamino)phenyl]octahydroindolizine [Example 119]	> 5000
trans-3-{4-[(2-Pyrrolidylethyl)sulfonylamino]phenyl}octahydroindolizine [Example 122]	534
